Values of other authors, collected in patent US20040067887A1, “Human VNO receptor (R1)” (priority 2000, published 2004).

Key:
human VNO = conditions: for physiological responses after administration to the human VNO: administered to the human VNO
human brain = conditions: human volunteers; delivered non-specifically to the nasal cavity; no detectable odor (Sobel et al. 1999)

Structure (SMILES) | physiological responses after administration to the human VNO (human VNO) | site specificity of physiological responses in vivo (human VNO; human subjects, VNO versus olfactory or respiratory epithelium (Monti-Bloch et al. 1994)) | activation of brain regions detected by fMRI (human brain)
C[C@@]12C=CC[C@H]1[C@@H]1CCC3=CC(=O)CC[C@]3(C)[C@H]1CC2 [androsta-4,16-dien-3-one] | induce bradycardia, bradypnea, increases in core body temperature, and other physiological responses | – | –
C[C@@]12C=CC[C@H]1[C@@H]1CCc3cc(O)ccc3[C@H]1CC2 [estra-1,3,5(10),16-tetraen-3-ol] | induce bradycardia, bradypnea, increases in core body temperature, and other physiological responses | – | –
CC(=O)Oc1ccc2c(c1)CC[C@@H]1[C@@H]2CC[C@]2(C)C=CC[C@@H]12 [PH15, estra-1,3,5(10),16-tetraen-3yl acetate] | – | induces physiological responses in vivo only when applied specifically to the VNO | dose-dependent activation of the anterior medial thalamus, the inferior frontal gyrus, and other regions of the human brain
